Laboratory results published in ChEMBL document CHEMBL1770079, “Discovery of small molecule human FPR1 receptor antagonists” (Bioorg Med Chem Lett, 2011).
pEC50, pIC50, pKi: −log10 of the molar value.

Legend:
[1] = target: T1, fMet-Leu-Phe receptor (Homo sapiens) (UniProt P21462); assay: Antagonist activity at FPR1 in human neutrophils assessed as inhibition of fMLF-stimulated calcium mobilization at 50 uM by FLIPR assay; format: functional
T1 sequence (whole entry): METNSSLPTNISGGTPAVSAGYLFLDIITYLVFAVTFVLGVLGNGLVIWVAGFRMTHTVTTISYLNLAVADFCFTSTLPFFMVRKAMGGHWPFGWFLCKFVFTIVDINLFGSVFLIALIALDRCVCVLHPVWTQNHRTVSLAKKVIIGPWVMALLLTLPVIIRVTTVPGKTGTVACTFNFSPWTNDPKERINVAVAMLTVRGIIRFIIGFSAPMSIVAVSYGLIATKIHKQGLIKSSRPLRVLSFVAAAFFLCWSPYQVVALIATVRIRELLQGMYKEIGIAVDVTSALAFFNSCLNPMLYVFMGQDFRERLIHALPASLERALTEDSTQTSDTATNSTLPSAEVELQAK

fMet-Leu-Phe receptor [2] = target: T2, fMet-Leu-Phe receptor (Homo sapiens, UniProt P21462); assay: (§1) Intrinsic activity at FPR1 in human neutrophils assessed as increase in calcium mobilization by FLIPR assay relative to fMLF; format: functional
T2 sequence (P21462 whole entry): T1 sequence (whole entry)

[3] = Intrinsic clearance in human microsomes; format: ADME, Microsome
[4] = target: T1, fMet-Leu-Phe receptor (Homo sapiens); assay: as §1; format: functional
fMet-Leu-Phe receptor [5] = target: T2, fMet-Leu-Phe receptor; assay: (§2) Agonist activity at FPR1 in human neutrophils assessed as increase in calcium mobilization by FLIPR assay; format: functional
[6] = target: T1, fMet-Leu-Phe receptor (Homo sapiens); assay: as §2; format: functional; design: concentration or dose not given beside the values; details: concentration not given here
fMet-Leu-Phe receptor [7] = target: T2, fMet-Leu-Phe receptor; assay: Antagonist activity at FPR1; format: functional

For `CCOc1ccc2oc(C(=O)NC(c3nc4ccccc4[nH]3)c3cccs3)c(C)c2c1` (stereo not drawn), the inhibition [1] was < 25%.
With `COc1ccccc1C(=O)NC(C(=O)Nc1c(C)cccc1C)c1ccc(Cl)cc1` (stereo not drawn) the inhibition [1] was < 25%.
In the case of `CSCCC(NC(=O)c1sccc1Cl)c1nc2ccccc2[nH]1` (stereo not drawn), the pIC50 (fMet-Leu-Phe receptor [2]) was 5.70.
With `CSCCC(NC(=O)c1ccccc1)c1nc2ccccc2[nH]1` (stereo not drawn) the pIC50 (fMet-Leu-Phe receptor [2]) was 5.30.
`O=C(NC(C(=O)Nc1ccccc1)c1ccc(Cl)cc1)c1ccccc1O` (stereo not drawn) gave a pIC50 (fMet-Leu-Phe receptor [2]) of 5.30.
For `CCOc1ccc2oc(C(=O)NC(c3ccccc3)c3nc4ccccc4[nH]3)c(C)c2c1` (stereo not drawn), the microsomal CLint [3] was 14 µL/min/mg and the inhibition [1] was < 25%.
With `CCOc1ccc2oc(C(=O)NC(CCSC)c3nc4cnccc4[nH]3)c(C)c2c1` (stereo not drawn) the pIC50 (fMet-Leu-Phe receptor [2]) was 6.00, the Intrinsic activity [4] was 0.8 and the pEC50 (fMet-Leu-Phe receptor [5]) was 5.80.
In the case of `CSCCC(NC(=O)Cc1ccccc1)c1nc2ccccc2[nH]1` (stereo not drawn), the inhibition [1] was < 25%.
For `CCOc1ccc2oc(C(=O)NC(CCSC)c3nc4ncccc4[nH]3)c(C)c2c1` (stereo not drawn), the inhibition [6] was < 25%.
`Cc1cccc(C)c1NC(=O)C(NC(=O)c1ccccc1O)c1cn(C)cn1` (stereo not drawn) showed a pIC50 (fMet-Leu-Phe receptor [2]) of 5.80.
`CCc1cc2c(=O)c(-c3nc4ccccc4n3C)c(C)oc2cc1OC(C)=O` gave a pKi (fMet-Leu-Phe receptor [7]) of 7.00.
`Cc1cccc(C)c1NC(=O)C(NC(=O)c1nc2ccccc2[nH]c1=O)c1ccc(Cl)cc1` (stereo not drawn) gave a pIC50 (fMet-Leu-Phe receptor [2]) of 5.60.
Compound `Cc1cccc(C)c1NC(=O)C(c1ccccc1)N(C)C(=O)c1ccccc1O` (stereo not drawn) has a pIC50 (fMet-Leu-Phe receptor [2]) of 5.00.
In the case of `CSCCC(NC(=O)c1occc1C)c1nc2ccccc2[nH]1` (stereo not drawn), the pIC50 (fMet-Leu-Phe receptor [2]) was 5.40.
In the case of `COc1ccccc1C(=O)NC(CCSC)c1nc2ccccc2[nH]1` (stereo not drawn), the inhibition [1] was < 25%.
For `Cc1ccccc1C(=O)NC(C(=O)Nc1c(C)cccc1C)c1ccc(Cl)cc1` (stereo not drawn), the inhibition [1] was < 25%.
Compound `CSCCC(NC(=O)c1oc2ccccc2c1C)c1nc2ccccc2[nH]1` (stereo not drawn) has a pIC50 (fMet-Leu-Phe receptor [2]) of 5.40.
In the case of `CSCCC(NC(=O)c1sccc1Cl)c1ncc(-c2ccccc2)[nH]1` (stereo not drawn), the pIC50 (fMet-Leu-Phe receptor [2]) was 5.20 and the inhibition [6] was < 25%.
`Cc1cccc(C)c1NC(=O)C(NC(=O)c1ccccc1O)c1ccc(Cl)cc1` (stereo not drawn) showed a pIC50 (fMet-Leu-Phe receptor [2]) of 6.10.
